Assay results reported in publication PMC7932029 (Journal of natural products, 2020).
Counter-ions that a name gives are not always drawn.

Key:
μOR [1] = molecular target: T1, μOR (Homo sapiens, UniProt P35372); experiment: PDSP primary radioligand displacement screen, μOR; format: binding; conditions: 10 μM
HA-mouse μOR = HA-mouse μOR (Mus musculus, UniProt P42866); experiment: GloSensor cAMP inhibition assay, μOR; format: cell-based; conditions: efficacy normalized to positive control DAMGO
FLAG-mouse κOR = FLAG-mouse κOR (Mus musculus, UniProt P33534); format: cell-based
FLAG-mouse δOR = FLAG-mouse δOR (Mus musculus, UniProt P32300); experiment: GloSensor cAMP inhibition assay, δOR; format: cell-based; conditions: efficacy normalized to positive control Leu-Enk
κOR [2] = molecular target: T2, κOR (Homo sapiens, UniProt P41145); format: cell-based
C57BL/6 mice [3] = experiment: Tail flick thermal nociception assay; format: in vivo, mouse
C57BL/6 mice [4] = experiment: Hot plate thermal nociception assay; format: in vivo, mouse
κOR [5] = molecular target: T2, κOR; format: binding
μOR [6] = molecular target: T1, μOR; experiment: PathHunter β-arrestin 2 recruitment assay, μOR
human δOR = human δOR (Homo sapiens, UniProt P41143); experiment: PathHunter β-arrestin 2 recruitment assay, δOR; conditions: highest concentration tested, in words
[7] = Partition coefficients of akuamma alkaloids in CCS solvent systems; format: physicochemical; conditions: for Kacid: 10 mM HCl; for Kbase: 10 mM TEA
Wistar rats = conditions: p.o., cited from earlier work
κOR [8] = molecular target: T2, κOR; experiment: PDSP secondary binding assay, κOR
[9] = 5 mg/kg p.o., any of the timepoints tested

T2 sequence (P41145 whole entry): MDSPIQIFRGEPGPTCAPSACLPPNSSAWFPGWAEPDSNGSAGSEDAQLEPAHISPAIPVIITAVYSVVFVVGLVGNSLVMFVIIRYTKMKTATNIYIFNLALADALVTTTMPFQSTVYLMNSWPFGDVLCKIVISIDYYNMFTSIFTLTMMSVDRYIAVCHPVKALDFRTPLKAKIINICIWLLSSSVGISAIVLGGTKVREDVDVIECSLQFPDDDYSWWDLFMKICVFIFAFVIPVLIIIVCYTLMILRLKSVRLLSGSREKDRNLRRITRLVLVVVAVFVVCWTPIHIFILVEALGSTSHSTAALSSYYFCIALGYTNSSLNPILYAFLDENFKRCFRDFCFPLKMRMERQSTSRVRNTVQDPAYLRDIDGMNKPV
T1 sequence (P35372 whole entry): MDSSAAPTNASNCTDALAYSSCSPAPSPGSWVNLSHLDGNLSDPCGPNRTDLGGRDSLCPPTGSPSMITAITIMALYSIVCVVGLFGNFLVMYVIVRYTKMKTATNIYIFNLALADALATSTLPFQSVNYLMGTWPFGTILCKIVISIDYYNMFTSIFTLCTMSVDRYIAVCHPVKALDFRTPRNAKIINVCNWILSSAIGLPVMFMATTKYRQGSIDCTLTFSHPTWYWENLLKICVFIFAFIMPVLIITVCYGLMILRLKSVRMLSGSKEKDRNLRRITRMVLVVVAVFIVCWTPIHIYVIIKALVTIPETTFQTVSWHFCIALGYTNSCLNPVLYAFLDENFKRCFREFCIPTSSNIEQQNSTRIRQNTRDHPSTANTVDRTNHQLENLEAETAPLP
Sequence of HA-mouse μOR (P42866 whole entry): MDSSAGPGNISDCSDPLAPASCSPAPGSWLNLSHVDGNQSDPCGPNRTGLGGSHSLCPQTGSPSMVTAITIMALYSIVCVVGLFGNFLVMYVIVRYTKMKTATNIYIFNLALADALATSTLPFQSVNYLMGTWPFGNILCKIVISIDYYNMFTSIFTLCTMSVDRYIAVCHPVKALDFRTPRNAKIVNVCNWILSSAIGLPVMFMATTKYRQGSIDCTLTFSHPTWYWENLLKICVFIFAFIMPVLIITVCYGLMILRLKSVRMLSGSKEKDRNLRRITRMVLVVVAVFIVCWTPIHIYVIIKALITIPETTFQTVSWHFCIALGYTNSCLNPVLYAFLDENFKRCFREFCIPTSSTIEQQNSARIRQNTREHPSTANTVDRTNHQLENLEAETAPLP
Sequence of FLAG-mouse κOR (P33534 whole entry): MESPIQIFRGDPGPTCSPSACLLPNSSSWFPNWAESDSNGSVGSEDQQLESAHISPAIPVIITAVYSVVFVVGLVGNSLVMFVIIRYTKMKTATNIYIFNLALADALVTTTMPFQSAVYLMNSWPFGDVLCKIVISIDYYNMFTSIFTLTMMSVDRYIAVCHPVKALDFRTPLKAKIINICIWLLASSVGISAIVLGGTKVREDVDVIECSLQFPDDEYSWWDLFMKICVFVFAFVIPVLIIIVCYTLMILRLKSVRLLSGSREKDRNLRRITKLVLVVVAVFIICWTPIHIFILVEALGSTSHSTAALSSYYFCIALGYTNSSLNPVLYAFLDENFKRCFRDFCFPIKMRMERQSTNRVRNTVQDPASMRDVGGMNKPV
Sequence of human δOR (P41143 whole entry): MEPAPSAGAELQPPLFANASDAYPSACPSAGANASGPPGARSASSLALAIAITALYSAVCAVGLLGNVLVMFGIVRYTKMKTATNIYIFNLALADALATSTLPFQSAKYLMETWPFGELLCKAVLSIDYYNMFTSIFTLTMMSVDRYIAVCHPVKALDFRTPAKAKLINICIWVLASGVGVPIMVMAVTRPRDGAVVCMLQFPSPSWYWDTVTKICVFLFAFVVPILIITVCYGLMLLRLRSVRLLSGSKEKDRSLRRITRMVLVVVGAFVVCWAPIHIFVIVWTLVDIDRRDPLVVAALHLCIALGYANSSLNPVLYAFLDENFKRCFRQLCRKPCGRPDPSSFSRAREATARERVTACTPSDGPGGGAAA
Sequence of FLAG-mouse δOR (P32300 whole entry): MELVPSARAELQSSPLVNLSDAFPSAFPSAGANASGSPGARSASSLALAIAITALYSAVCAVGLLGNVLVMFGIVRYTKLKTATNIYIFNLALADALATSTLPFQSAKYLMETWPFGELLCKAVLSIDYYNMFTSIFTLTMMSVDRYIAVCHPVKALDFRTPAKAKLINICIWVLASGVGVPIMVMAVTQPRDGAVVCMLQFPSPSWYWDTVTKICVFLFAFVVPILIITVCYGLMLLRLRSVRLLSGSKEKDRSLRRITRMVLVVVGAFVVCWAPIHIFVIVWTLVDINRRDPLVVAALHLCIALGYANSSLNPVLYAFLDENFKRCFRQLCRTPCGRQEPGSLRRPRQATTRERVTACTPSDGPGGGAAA

C/C=C1/CN2CC[C@@]34c5cc(O)ccc5N(C)[C@]35OC[C@@]4(C(=O)OC)[C@H]1C[C@H]25 [Compound 1, akuammine]
displacement of [3H]-DAMGO (μOR [1]): displaced
cAMP α (HA-mouse μOR): 62 ± 6
cAMP inhibition (FLAG-mouse κOR): did not inhibit cAMP production
cAMP α (FLAG-mouse δOR): 50 ± 35
β-arrestin 2 α (κOR [2]): 35 ± 6
antinociception (C57BL/6 mice [3]; 3 mg/kg s.c., 110 minutes): minimal yet statistically significant antinociception
antinociception (C57BL/6 mice [3]; 60 mg/kg s.c., 30 minutes): minimal yet statistically significant antinociception
antinociception (C57BL/6 mice [3]; oral dosing, data not shown): no antinociception was measurable
antinociception (C57BL/6 mice [4]; 3 mg/kg s.c., 110 minutes): minimal yet statistically significant antinociception
antinociception (C57BL/6 mice [4]; 30 mg/kg s.c., 60 minutes): minimal yet statistically significant antinociception
antinociception (C57BL/6 mice [4]; 60 mg/kg s.c., 30 minutes): minimal yet statistically significant antinociception
antinociception (C57BL/6 mice [4]; oral dosing, data not shown): no antinociception was measurable

C/C=C1/CN2[C@H]3Cc4c([nH]c5ccccc45)[C@@H]2C[C@@H]1[C@]3(CO)C(=O)OC [Compound 2, akuammidine]
Binding pKi (κOR [5]): −4.8 ± 0.1 (3)
antinociception (C57BL/6 mice [3]; 10 mg/kg s.c., 50 minutes): minimal yet statistically significant antinociception
antinociception (C57BL/6 mice [3]; 30 mg/kg s.c., 30 minutes): minimal yet statistically significant antinociception
antinociception (C57BL/6 mice [3]; oral dosing, data not shown): no antinociception was measurable
antinociception (C57BL/6 mice [4]; 3 mg/kg s.c., 110 minutes): minimal, yet statistically significant, antinociception
antinociception (C57BL/6 mice [4]; oral dosing, data not shown): no antinociception was measurable
β-arrestin 2 recruitment (μOR [6]; highest concentration tested, in words): minimal recruitment
β-arrestin recruitment (human δOR): minimal recruitment

C/C=C1/CN2CC[C@@]34c5ccccc5N(C)[C@]35OC[C@@]4(C(=O)OC)[C@H]1C[C@H]25 [Compound 3, pseudo-akuammigine]
Kacid ([7]; 1:1:1:1 Hex/EtOAc/MeOH/H2O): <<0.01
Kbase ([7]; 1:1:1:1 Hex/EtOAc/MeOH/H2O): 2.71
Kacid ([7]; 1:1 EtOAc/H2O): 0.10
Kbase ([7]; 1:1 EtOAc/H2O): 51.9
Kbase ([7]; 2:2:3 MTBE/CH3CN/H2O): 87.0
Kacid ([7]; 3:1.5:4 MTBE/CH3CN/H2O): 0.25
Kbase ([7]; 3:1.5:4 MTBE/CH3CN/H2O): 30.9
Kacid ([7]; 3:7:3:7 Hex/EtOAc/MeOH/H2O): <<0.01
Kbase ([7]; 3:7:3:7 Hex/EtOAc/MeOH/H2O): 32.3
displacement of [3H]-DAMGO (μOR [1]): displaced
cAMP α (HA-mouse μOR): 82 ± 7
cAMP α (FLAG-mouse κOR): 69 ± 8
β-arrestin 2 α (κOR [2]): 20 ± 20
antinociception (C57BL/6 mice [3]; [9]): did not produce antinociception
antinociception (C57BL/6 mice [3]; 5 mg/kg s.c., 30 minutes): minimal yet statistically significant antinociception
antinociception (C57BL/6 mice [3]; 5 mg/kg s.c., 60 minutes): minimal yet statistically significant antinociception
antinociception (C57BL/6 mice [3]; 10 mg/kg s.c., 30 minutes): failed to produce antinociception
antinociception (C57BL/6 mice [4]; [9]): did not produce antinociception
antinociception (C57BL/6 mice [4]; 5 mg/kg s.c., 30 minutes): minimal yet statistically significant antinociception
antinociception (C57BL/6 mice [4]; 10 mg/kg s.c., 30 minutes): failed to produce antinociception
antinociception (Wistar rats; Wistar rats, 5 mg/kg): antinociceptive
time of peak antinociceptive activity (Wistar rats; rats): 180 min

C/C=C1/CN2CC[C@]34C(=C(C(=O)OC)[C@H]1C[C@H]23)Nc1ccccc14 [Compound 4, akuammicine]
Kacid ([7]; 1:1:1:1 Hex/EtOAc/MeOH/H2O): <<0.01
Kbase ([7]; 1:1:1:1 Hex/EtOAc/MeOH/H2O): 1.63
Kacid ([7]; 1:1 EtOAc/H2O): 0.02
Kbase ([7]; 1:1 EtOAc/H2O): 222
Kacid ([7]; 2:2:3 MTBE/CH3CN/H2O): 0.61
Kbase ([7]; 2:2:3 MTBE/CH3CN/H2O): 27.7
Kacid ([7]; 3:1.5:4 MTBE/CH3CN/H2O): 0.14
Kbase ([7]; 3:1.5:4 MTBE/CH3CN/H2O): 64.1
Kacid ([7]; 3:7:3:7 Hex/EtOAc/MeOH/H2O): <<0.01
Kbase ([7]; 3:7:3:7 Hex/EtOAc/MeOH/H2O): 28.9
displacement of [3H]-DAMGO (μOR [1]): displaced
Ki (κOR [8]): 170 nM
Binding pKi (κOR [5]): −7.1 ± 0.1 (3)

C/C=C1/CN2CC[C@]34C(=Nc5ccccc53)[C@@H]2C[C@@H]1[C@@]4(COC(C)=O)C(=O)OC [Compound 5, akuammiline]
Kacid ([7]; 1:1:1:1 Hex/EtOAc/MeOH/H2O): <<0.01
Kbase ([7]; 1:1:1:1 Hex/EtOAc/MeOH/H2O): 0.23
Kacid ([7]; 1:1 EtOAc/H2O): 0.03
Kbase ([7]; 1:1 EtOAc/H2O): 28.2
Kacid ([7]; 2:2:3 MTBE/CH3CN/H2O): 0.27
Kbase ([7]; 2:2:3 MTBE/CH3CN/H2O): 5.61
Kacid ([7]; 3:1.5:4 MTBE/CH3CN/H2O): 0.05
Kbase ([7]; 3:1.5:4 MTBE/CH3CN/H2O): 6.82
Kacid ([7]; 3:7:3:7 Hex/EtOAc/MeOH/H2O): <<0.01
Kbase ([7]; 3:7:3:7 Hex/EtOAc/MeOH/H2O): 2.53
displacement of [3H]-DAMGO (μOR [1]): significantly less displacement
Ki (κOR [8]): 400 nM
Binding pKi (κOR [5]): −6.0 ± 0.1 (3)

C/C=C1/CN2[C@@H]3C[C@@]45c6ccccc6N[C@]4(O3)[C@@H]2C[C@@H]1[C@@]5(COC(C)=O)C(=O)OC [Compound 6, picraline]
Kacid ([7]; 1:1:1:1 Hex/EtOAc/MeOH/H2O): <<0.01
Kbase ([7]; 1:1:1:1 Hex/EtOAc/MeOH/H2O): 0.82
Kacid ([7]; 1:1 EtOAc/H2O): 0.03
Kbase ([7]; 1:1 EtOAc/H2O): 16.09
Kacid ([7]; 2:2:3 MTBE/CH3CN/H2O): 0.56
Kbase ([7]; 2:2:3 MTBE/CH3CN/H2O): 11.4
Kacid ([7]; 3:1.5:4 MTBE/CH3CN/H2O): 0.10
Kbase ([7]; 3:1.5:4 MTBE/CH3CN/H2O): 17.4
Kacid ([7]; 3:7:3:7 Hex/EtOAc/MeOH/H2O): 0.01
Kbase ([7]; 3:7:3:7 Hex/EtOAc/MeOH/H2O): 7.29
displacement of [3H]-DAMGO (μOR [1]): significantly less displacement

C[C@@H](NC(=O)[C@@H](N)Cc1ccc(O)cc1)C(=O)NCC(=O)N(C)[C@@H](Cc1ccccc1)C(=O)NCCO [DAMGO, (2S)-2-[[2-[[(2R)-2-[[(2S)-2-Amino-3-(4-hydroxyphenyl)propanoyl]amino]propanoyl]amino]acetyl]-methylamino]-N-(2-hydroxyethyl)-3-phenylpropanamide, reference compound]
cAMP α (HA-mouse μOR): 100
β-arrestin 2 α (μOR [6]; efficacy normalized to positive control DAMGO): 100

CN1CC[C@]23c4c5ccc(O)c4O[C@H]2[C@@H](O)C=C[C@H]3[C@H]1C5 [morphine, morphine sulfate pentahydrate, reference compound]
antinociception (C57BL/6 mice [3]; 6 mg/kg s.c., 30 min): significant antinociception
antinociception (C57BL/6 mice [4]; 6 mg/kg s.c., 30 min): significant antinociception
